From patent publication US20140073602A9, “NITRIC OXIDE DELIVERING HYDROXYALKYL STARCH DERIVATIVES” (FRESENIUS KABI DEUTSCHLAND GMBH, priority 2010, published 2014)

System: phenylephrine-precontracted aortic rings from rats
Assay: Vasodilatory influence in isolated rat aortic ring preparations
Conditions: first set; 1 microM
Method: The aim of the experiments was to test for the vasodilatory influence of SNO-HES in isolated rat aortic ring preparations. Isolated aortic rings from rats were precontracted by phenylephrine. SNO-HES-induced relaxations were determined after defined incubation periods. In order to completely relax the aorta and to define the 100% relaxation level, papaverine was applied at the end of an experiment. Two sets of experiments were performed:
Aortic ring preparations from adult rats (male, Lewis, 278-307 g; Janvier, St Berthevin Cedex, France) were used to perform the experiments.
All HES derivatives were supplied by Fresenius-Kabi Deutschland GmbH. SNO-HES derivatives CNO1 and CNO8 (both prepared according to GP3, table 8) were tested alongside with their precursor SH-HES (D31, prepared according to GP2.1 and GP2.2, table 6) and the unmodified HES (HES17, table 1). The first set of experiments was performed with SNO-HES derivative CNO1, the second set with CNO8.
Physiological solution contained (in mM) NaCl 120, KCl 5.5, MgSO4 1.2, KH2PO4 1.2, CaCl2 2.5, NaHCO3 25 and glucose 11. The solution was maintained at 37° C. and gassed with carbogen (95% O2+5% CO2 (v/v)). Phenylephrine (batch 050M1663) and papaverine (batch 010M1565) purchased from Sigma (Munich, Germany) were dissolved in distilled water to prepare stocks of 1 mM and 50 mM, respectively. […]

For `N[C@@H](CCC(=O)N[C@@H](CSN=O)C(=O)NCC(=O)O)C(=O)O` [GSNO, S-nitrosogluthatione], the “Relaxation of phenylephrine-contracted aortic rings (in words)” value was “immediately and completely relaxed”.
